Literature values in US20130236544A1, “STABLE PHARMACEUTICAL COMPOSITIONS OF FESOTERODINE” (DR. REDDY'S LABORATORIES LTD., priority 2012, published 2013).
Where a name gives a salt, the structure may show the parent alone.

CC(C)C(=O)Oc1ccc(CO)cc1[C@H](CCN(C(C)C)C(C)C)c1ccccc1 [Fesoterodine fumarate, isobutyric acid 2-((R)-3-diisopropylammonium-1-phenylpropyl)-4-(hydroxymethyl) phenyl ester hydrogen fumarate]
solubility in water: freely soluble in water
